In PubChem BioAssay AID503:

Biological target: Regulator of G-protein signaling 18 (Homo sapiens) (UniProt Q9NS28)
Test: ligand-induced RGS18 melting temperature shift – biophysical, recombinant human protein, DSF (AID 503)
Conditions: Recombinant RGS18 DSF thermal shift, SYPRO orange; at 10 µM; protein 2 µM; buffer 10 mM HEPES; pH 7.5; NaCl 150 mM; stronger effect = higher value

Regulator of G-protein signaling 18 (Homo sapiens), sequence (Q9NS28 whole entry, looked up): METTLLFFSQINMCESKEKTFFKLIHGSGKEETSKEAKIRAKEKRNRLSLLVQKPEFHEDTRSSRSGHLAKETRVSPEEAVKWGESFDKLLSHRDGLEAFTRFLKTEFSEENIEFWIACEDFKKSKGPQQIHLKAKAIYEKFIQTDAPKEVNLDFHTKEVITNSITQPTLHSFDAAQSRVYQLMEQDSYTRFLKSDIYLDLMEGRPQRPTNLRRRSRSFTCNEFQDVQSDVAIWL

Tm shift [°C] | Structure (SMILES)
2.6 | O=C1NCc2c1c1c3ccccc3[nH]c1c1[nH]c3ccccc3c21
4 | O=C(Nc1cccc(Nc2cc(Nc3cccc(C(F)(F)F)c3)ncn2)c1)C1CC1
